Assay results: patent EP0295827A2, “Use of 24,25-dihydroxy-cholecalciferol in mending bone fractures” (priority 1987, dated 1988)

How the values were obtained:
[1] = tested on: rabbits suffering fracture; assay: Fibula fracture model: strength test (bending test); type: in vivo, Japanese white house rabbits; conditions: 100 µg/kg oral, average value ± standard deviation
From the text: The right fibulae of mature house rabbits (Japanese white house rabbits having a weight of about 3 kg) were broken at the central portions under anesthetic with a dental hand drill. Each of the house rabbits was kept in a separate cage and was allowed to take an ordinary solid food (CR-1, produced by Nippon Clare Corp.) and city water freely. 24R,25-(OH)₂-D₃ and 24S,25-(OH)₂-D₃ were dispersed in an aqueous 0.5% CMC solution and orally administered to the house rabbits through a rubber catheter. The experimental groups were as follows:
The respective medicines or aqueous 0.5% CMC solution was administered to these house rabbits for 3 weeks or 6 weeks after the bones had been broken. Thereafter, the house rabbits were killed and the fibulae were taken out for X-ray inspection and a strength test (bending test by DDV-VMF produced by Toyo Baldwin Co., Ltd.).

[2] = tested on: ICR mice; assay: 30-day repeated oral administration: urine analysis; type: in vivo; parameters: key: ↓: Decreased; →: No change; ↑: Increased; conditions: 30 days, vs control group
Procedure: (§1) 24R,25-(OH)₂-D₃ was dissolved in 1% ethanol containing Panacate 810 to a predetermined concentration and the resultant solution was forcibly and orally administered to 5-week-old male or female ICR mice for 30 days in succession so that the does might become to 10 µg/kg/day, 100 µg/kg/day and 1,000 µg/kg/day, respectively. The thus treated mice were compared with a group of mice to which only the solvent had been administered in the following test items.

[3] = tested on: ICR mice; assay: 30-day repeated oral administration: weight of organs; type: in vivo; parameters: key: ↓: Decreased; →: No change; ↑: Increased; conditions: 30 days, vs control group
Procedure: as §1

[4] = tested on: ICR mice; assay: 30-day repeated oral administration: pathological inspection of organs; type: in vivo; conditions: 10, 100 and 1,000 µg/kg/day oral, 30 days; 10% formalin, hematoxylin-eosin
Procedure: as §1
The following organs were fixed by 10% formalin, stained with hematoxylin-eosin and subjected to pathological inspection.

[5] = 30-day repeated oral administration: growth curve of measured weights; type: in vivo, ICR mice; conditions: 10, 100 and 1,000 µg/kg/day oral, 30 days, male or female, vs solvent group
Procedure: as §1

C=C1CC[C@H](O)C/C1=C/C=C1\CCC[C@]2(C)[C@@H]([C@H](C)CC[C@@H](O)C(C)(C)O)CC[C@@H]12 [24R,25-(OH)₂-D₃]
Bending strength ([1]; 3 weeks after): 63 ± 33 N/mm | Bending strength ([1]; 6 weeks after): 103 ± 15 N/mm | Ketone body ([2]; female, 10 μg/kg oral): → | Occult blood ([2]; female, 10 μg/kg oral): → | Protein ([2]; female, 10 μg/kg oral): → | Sugar ([2]; female, 10 μg/kg oral): → | Urobilinogen ([2]; female, 10 μg/kg oral): → | pH ([2]; female, 10 μg/kg oral): → | Ketone body ([2]; female, 100 μg/kg oral): → | Occult blood ([2]; female, 100 μg/kg oral): → | Protein ([2]; female, 100 μg/kg oral): → | Sugar ([2]; female, 100 μg/kg oral): → | Urobilinogen ([2]; female, 100 μg/kg oral): → | pH ([2]; female, 100 μg/kg oral): → | Ketone body ([2]; female, 1000 μg/kg oral): → | Occult blood ([2]; female, 1000 μg/kg oral): → | Protein ([2]; female, 1000 μg/kg oral): → | Sugar ([2]; female, 1000 μg/kg oral): → | Urobilinogen ([2]; female, 1000 μg/kg oral): → | pH ([2]; female, 1000 μg/kg oral): → | Ketone body ([2]; male, 10 μg/kg oral): → | Occult blood ([2]; male, 10 μg/kg oral): → | Protein ([2]; male, 10 μg/kg oral): → | Sugar ([2]; male, 10 μg/kg oral): → | Urobilinogen ([2]; male, 10 μg/kg oral): → | pH ([2]; male, 10 μg/kg oral): → | Ketone body ([2]; male, 100 μg/kg oral): → | Occult blood ([2]; male, 100 μg/kg oral): → | Protein ([2]; male, 100 μg/kg oral): → | Sugar ([2]; male, 100 μg/kg oral): → | Urobilinogen ([2]; male, 100 μg/kg oral): → | pH ([2]; male, 100 μg/kg oral): → | Ketone body ([2]; male, 1000 μg/kg oral): → | Occult blood ([2]; male, 1000 μg/kg oral): → | Protein ([2]; male, 1000 μg/kg oral): → | Sugar ([2]; male, 1000 μg/kg oral): → | Urobilinogen ([2]; male, 1000 μg/kg oral): → | pH ([2]; male, 1000 μg/kg oral): → | Weight of organs: Adrenal gland ([3]; gemale, 10 μg/kg·day oral): → | Weight of organs: Brain ([3]; gemale, 10 μg/kg·day oral): → | Weight of organs: Heart ([3]; gemale, 10 μg/kg·day oral): → | Weight of organs: Hypo-physis ([3]; gemale, 10 μg/kg·day oral): → | Weight of organs: Kidney ([3]; gemale, 10 μg/kg·day oral): → | Weight of organs: Liver ([3]; gemale, 10 μg/kg·day oral): → | Weight of organs: Lung ([3]; gemale, 10 μg/kg·day oral): → | Weight of organs: Ovary ([3]; gemale, 10 μg/kg·day oral): → | Weight of organs: Spleen ([3]; gemale, 10 μg/kg·day oral): → | Weight of organs: Thymus ([3]; gemale, 10 μg/kg·day oral): → | Weight of organs: Uterus ([3]; gemale, 10 μg/kg·day oral): → | Weight of organs: Adrenal gland ([3]; gemale, 100 μg/kg·day oral): → | Weight of organs: Brain ([3]; gemale, 100 μg/kg·day oral): → | Weight of organs: Heart ([3]; gemale, 100 μg/kg·day oral): → | Weight of organs: Hypo-physis ([3]; gemale, 100 μg/kg·day oral): → | Weight of organs: Kidney ([3]; gemale, 100 μg/kg·day oral): → | Weight of organs: Liver ([3]; gemale, 100 μg/kg·day oral): → | Weight of organs: Lung ([3]; gemale, 100 μg/kg·day oral): → | Weight of organs: Ovary ([3]; gemale, 100 μg/kg·day oral): → | Weight of organs: Spleen ([3]; gemale, 100 μg/kg·day oral): → | Weight of organs: Thymus ([3]; gemale, 100 μg/kg·day oral): → | Weight of organs: Uterus ([3]; gemale, 100 μg/kg·day oral): → | Weight of organs: Adrenal gland ([3]; gemale, 1000 μg/kg·day oral): → | Weight of organs: Brain ([3]; gemale, 1000 μg/kg·day oral): → | Weight of organs: Heart ([3]; gemale, 1000 μg/kg·day oral): → | Weight of organs: Hypo-physis ([3]; gemale, 1000 μg/kg·day oral): → | Weight of organs: Kidney ([3]; gemale, 1000 μg/kg·day oral): → | Weight of organs: Liver ([3]; gemale, 1000 μg/kg·day oral): → | Weight of organs: Lung ([3]; gemale, 1000 μg/kg·day oral): → | Weight of organs: Ovary ([3]; gemale, 1000 μg/kg·day oral): → | Weight of organs: Spleen ([3]; gemale, 1000 μg/kg·day oral): → | Weight of organs: Thymus ([3]; gemale, 1000 μg/kg·day oral): → | Weight of organs: Uterus ([3]; gemale, 1000 μg/kg·day oral): → | Weight of organs: Adrenal gland ([3]; male, 10 μg/kg·day oral): → | Weight of organs: Brain ([3]; male, 10 μg/kg·day oral): → | Weight of organs: Heart ([3]; male, 10 μg/kg·day oral): → | Weight of organs: Hypo-physis ([3]; male, 10 μg/kg·day oral): → | Weight of organs: Kidney ([3]; male, 10 μg/kg·day oral): → | Weight of organs: Liver ([3]; male, 10 μg/kg·day oral): → | Weight of organs: Lung ([3]; male, 10 μg/kg·day oral): → | Weight of organs: Spleen ([3]; male, 10 μg/kg·day oral): → | Weight of organs: Testis ([3]; male, 10 μg/kg·day oral): → | Weight of organs: Thymus ([3]; male, 10 μg/kg·day oral): → | Weight of organs: Adrenal gland ([3]; male, 100 μg/kg·day oral): → | Weight of organs: Brain ([3]; male, 100 μg/kg·day oral): → | Weight of organs: Heart ([3]; male, 100 μg/kg·day oral): → | Weight of organs: Hypo-physis ([3]; male, 100 μg/kg·day oral): → | Weight of organs: Kidney ([3]; male, 100 μg/kg·day oral): → | Weight of organs: Liver ([3]; male, 100 μg/kg·day oral): → | Weight of organs: Lung ([3]; male, 100 μg/kg·day oral): → | Weight of organs: Spleen ([3]; male, 100 μg/kg·day oral): → | Weight of organs: Testis ([3]; male, 100 μg/kg·day oral): → | Weight of organs: Thymus ([3]; male, 100 μg/kg·day oral): → | Weight of organs: Adrenal gland ([3]; male, 1000 μg/kg·day oral): → | Weight of organs: Brain ([3]; male, 1000 μg/kg·day oral): → | Weight of organs: Heart ([3]; male, 1000 μg/kg·day oral): → | Weight of organs: Hypo-physis ([3]; male, 1000 μg/kg·day oral): → | Weight of organs: Kidney ([3]; male, 1000 μg/kg·day oral): → | Weight of organs: Liver ([3]; male, 1000 μg/kg·day oral): → | Weight of organs: Lung ([3]; male, 1000 μg/kg·day oral): → | Weight of organs: Spleen ([3]; male, 1000 μg/kg·day oral): → | Weight of organs: Testis ([3]; male, 1000 μg/kg·day oral): → | Weight of organs: Thymus ([3]; male, 1000 μg/kg·day oral): → | pathological inspection of organs [4]: No particular abnormality was observed | growth curve of the measured weights [5]: no significant difference
